A short description of data set [1]: Critical micelle concentration by Hoechst 33342 fluorescence in ATPase reaction buffer. In kind it is physicochemical. Conditions: 50 mM Tris-HCl pH 7.5, 100 mM NaCl, 37°C; no FC-16, MgCl2 or ATP. As to the method:
CMC values were determined as described ([61]). […] 96-well plates suitable for fluorescence spectroscopy (Greiner Bio-One, FIA plate, black, flat bottom, medium binding) were used. […] CMCs of the bile acids were determined in ATPase reaction buffer (50 mM Tris-HCl, pH 7.5 (at 37°C), 100 mM NaCl) containing no FC-16, MgCl2, or ATP at 37°C using a Tecan M200 plate reader (Atlantic lab equipment). Bile acids were dissolved either in ddH2O or in 100% DMSO (as stated in “Lipid, cholesterol and bile acid preparation”) at a concentration of 100 mM. […] In case of hydrophobic bile acids, which were dissolved in DMSO, DMSO concentration was adapted to 1% in all wells. […] After background correction, fluorescence data were analyzed using Prism (version 8, GraphPad) with Equation 4:(4) F=Fmax∗(c[BA]−cmc)/(K0.5−cmc)+(c[BA]−cmc)
The measured fluorescence at each bile acid concentration (c[BA]) is represented by F, while Fmax is the maximal fluorescence, K0.5 is the midpoint of the function, and cmc is the critical micelle concentration of the bile acid.

A short description of data set [2]: Solubility / precipitation of bile acids under assay conditions. In kind it is physicochemical. The note with it: assay setup, DMSO stock. As to the method: The sodium salts of conjugated and unconjugated bile acids were dissolved in double-distilled water (ddH2O) or 100% DMSO at a concentration of 100 mM. While glyco-/tauro-/cholic acid (G/T/CA), glyco-/tauro-/chenodeoxycholic acid (G/T/CDCA) were dissolved in ddH2O water, glyco-/tauro-/deoxycholic acid (G/T/DCA), glyco/-tauro-/ursodeoxycholic acid (G/T/UDCA) as wells as Nor-UDCA and taurolithocholic acid (TLCA) were dissolved in DMSO. Glyco- and unconjugated lithocholic acid could not be dissolved in DMSO in the appropriate concentrations and therefore excluded. […] Modulation of the ATP hydrolysis by bile acid was determined in a concentration-dependent manner from 0 to 1,000 μM bile acids.

On to `C[C@H](CCC(=O)NCC(=O)O)[C@H]1CC[C@H]2[C@@H]3CC[C@@H]4C[C@H](O)CC[C@]4(C)[C@H]3CC[C@]12C` [Glycolithocholic acid], for which the “Critical micelle concentration (cmc)” value in data set [1] is “Precipitate ^a”. For the same compound, the “Concentration above which the bile acid precipitated” value in data set [2] is recorded as “higher than 100 μM”.

Source of the values: PMC8233136, “Monomeric bile acids modulate the ATPase activity of detergent-solubilized ABCB4/MDR3” (Journal of Lipid Research, 2021).
